Consider 28 molecules from patent publication US5858670A, “Bio-oligomer libraries and a method of use thereof” (The Arizona Board of Regents, priority 1996, dated 1999).

Series [1] in a line: UV/VIS irradiation of ONb-linked peptide resins, HPLC of released product. Format: physicochemical. Conditions: in water. Here is the method:
Each peptide was irradiated for 1 and 3 hours with ultraviolet (UV) and visible (VIS) light in 0.3 ml of water or 3/7 mixture of chloroethanol:dichloromethane. A total of 16+16 experiments were run and assayed.
After exposure the supernatant was filtered off, lyophilized and re-dissolved to equal volumes of MeOH (0.3 ml). The products were analyzed on the HPLC.

A further series addresses anti-v-mos MAb. Briefly: solution phase binding studies with [3H]Ac-v-mos radioligand. More on the design: species or system mouse. Conditions: competition with 20 nM [3H]Ac-v-mos for 10 μg/ml anti-v-mos MAb. How it is done:
Peptide ligand affinity for anti-v-mos mAb was measured by solution phase binding studies using [^3 H]acetyl v-mos peptide ([^3 H]Ac-v-mos) as the radioligand. The radioligand was prepared by N-terminal acetylation of v-mos peptide, prior to the deprotection of the side chains, with an equimolar amount of [^3 H]sodium acetate (specific activity=2.52 Ci/mmole, New England Nuclear, Boston, Mass.). […] Specific binding was defined as the difference between [^3 H]Ac-v-mos binding in-the presence (nonspecific) and absence (total) of 100 μM unlabelled v-mos peptide for each [^3 H]Ac-v-mos concentration. Bound radioligand was separated by centrifugation using a 10-fold excess (binding capacity relative to immunoglobulin used) of Protein-G Sepharose (Pharmacia) to precipitate the antibody. […] Over 50% of the total binding was specific in the inhibition studies. Saturation and inhibition binding constants were determined for single site binding by nonlinear regression analysis as previously described (Knapp and Yamamura, 1990, Life Sci. 46:1457-1463).

Series [2] addresses anti-β-endorphin MAb. Briefly: anti-β-endorphin binding assay: peptide inhibition of [3H][Leu]enkephalin binding, solution phase. Particulars: for Ki: competition with 5.0 nM [3H][Leu]enkephalin.
Method: Peptide ligand binding affinities for the anti-β-endorphin monoclonal antibody were determined in solution phase. […] Specific binding was defined as the difference between binding measured in the presence or absence of 1.0 μM unlabelled [Leu]enkephalin. Bound radioligand was precipitated by the addition of a 10-fold excess of Protein-G Sepharose (Pharmacia) followed by an overnight incubation (23°-24° C.). The Protein-G Sepharose was collected by centrifugation (13,000×g for 5 minutes) and the pellets suspended in 250 μl 5% (v/v) acetic acid before transfer to vials for liquid scintillation counting. […] Peptide ligand inhibition curves were produced for eight concentrations of the peptide over a 400-fold range. Binding data for saturation and inhibition studies were analyzed by weighted-nonlinear regression methods using appropriate one site models reported by Knapp et al. (1990, J. Pharmacol. Exp. Ther. 255:1278-1282). Ki values for inhibition binding constants were calculated using the method of Cheng and Prusoff (1973, Biochem. Pharmacol. 22:3099-3102). Each Ki value was calculated from three to four independent determinations.
Series [3] deals with anti-β-endorphin MAb. As to the kind of experiment: library bead screening with biotinylated anti-β-endorphin MAb and streptavidin-alkaline phosphatase. Format: binding. Particulars: recycled pentapeptide library, 16 hours with biotinylated MAb. Here is the method:
Prior to using the same random peptide library to screen with anti-β-endorphin MAb, all the blue beads that had stained for streptavidin-alkaline phosphatase alone were removed. The remaining beads were then treated with 8M guanidine hydrochloride to remove any bound protein. This recycled library was then mixed with biotinylated anti-β-endorphin MAb (anti-β-endorphin, clone 3-E7, was obtained commercially from Boehringer Mannheim, Indianapolis, Ind.) for 16 hours. After extensive washing, a secondary step with streptavidin-alkaline phosphatase was used to trigger the staining reaction for the ELISA. […] Peptide analogues with various carboxyl terminus of these ligand leads were synthesized and their affinity (Ki) was determined using [^3 H]Leu-enkaphalin (New England Nuclear, Boston, Mass.) as the labelled ligand and the unlabelled peptides as the competing ligand (anti-β-endorphin assay, Section 10.1.2, supra).

The next series addresses T1, streptavidin (Streptomyces avidinii, UniProt P22629).
T1 construct: purchased Pierce, Rockford, Ill
As to the kind of experiment: biotin inhibition of LHPQF-resin staining by streptavidin-alkaline phosphatase. It is filed as binding. How it is done:
FIG. 8. […] A: 100 nM; B: 10 nM; C: 1 nM; and D: 0.1 nM biotin. Blank beads (β-Ala-aminocaproic acid-resin) were mixed 1:1 with the LHPQFD-resin prior to incubating with streptavidin-alkaline phosphatase to serve as an internal negative control.
The LHPQF-resin was then mixed with streptavidin-alkaline phosphatase in the presence of varying concentration of biotin. […] The inhibition study establishes that the HPQ consensus sequence binds to the biotin-binding site of streptavidin.

The test system of series [4] is anti-v-mos monoclonal antibody. Briefly: bead staining with anti-v-mos monoclonal antibody and alkaline phosphatase secondary antibody (Example 8). It is filed as binding, mouse. Conditions: 1 μg/ml MAb, secondary antibody 1:2000, BCIP/NBT, 15 minutes. How it is done: The long v-mos beads were mixed with a thousand fold excess of the short v-mos beads. Two milliliters of the purified anti-v-mos monoclonal antibody (1 μg/ml) in PBS with 0.1% Tween 20 was added to the mixture of long and short v-mos beads and incubated at room temperature for one hour with gentle mixing. […]. The beads were then washed on a small polypropylene disposable column (obtained from Isolab) where the beads were retained by the frit. The beads were then mixed with 2 ml of a secondary antibody at 1:2000 dilution for one hour. After washing, the beads were poured into a polystyrene petri dish and allowed to settle. The supernatant was removed and a solution of 5-bromo-4-chloro-3-indoyl phosphate and nitro blue tetrazolium was gently added as a substrate.
This made it possible immediately to detect a single dark bead within a lawn of thousands of colorless beads. The distinction between the beads is illustrated in FIGS. 2 to 4, all of which are photographs at 40× magnification of the beads distributed in petri dishes. […] Accordingly, the beads that contained the peptide sequence of interest were readily distinguished and isolated from the other beads in the library.

For series [5], the system named is anti-v-mos monoclonal antibody. As to the kind of experiment: PAM resin bead staining with anti-v-mos monoclonal antibody and labelled secondary antibody (Example 9). It is filed as binding, mouse. Particulars: 1 ug/ml MAb, secondary antibody 1:100, ABTS with H2O2, 15 minutes. Here is the method:
Approximately 0.1 mg of the PAM resin/v-mos peptide described above was mixed with a hundred-fold excess of N^β -Fmoc-alanine PAM resin beads obtained from Bachem, Inc. Two ml of the purified monoclonal antibody (1 ug/ml) in PBS plus 0.1% Tween 20 were added to the peptide/support mixture and incubated at room temperature for 45 minutes with gentle mixing.
The beads were washed on a small polypropylene disposable column (obtained from Isolab) which retained the beads on a frit. The beads were then mixed with 2 ml of […] secondary antibody (1:100 dilution) for one hour. After washing, the beads were spread on a piece of glass filter and soaked in 2,2'-azinobis (3-ethylbenzthiozoline sulfonic acid) (ABTS) substrate with H2 O2. […] A small surrounding lighter green halo formed on the glass filter. […] The v-mos beads were readily distinguished.

The next series deals with anti-v-mos. Particulars: cited from earlier work.
Where [6] appears, read: peptide with carboxyl terminus --NH2, read-out: Ki, Carboxyl Terminus --NH2.
The mark [7] stands for this setting: peptide with carboxyl terminus --OH, read-out: Ki, Carboxyl Terminus --OH.

Like-named read-outs stand apart in the source and are kept apart here. Where no end group is shown, it is not given here. [ ]: non-standard residue; d: D form. Ahx = NCCCCCC(=O)O; βAla = NCCC(=O)O

T1 sequence (P22629 25-183, species assumed): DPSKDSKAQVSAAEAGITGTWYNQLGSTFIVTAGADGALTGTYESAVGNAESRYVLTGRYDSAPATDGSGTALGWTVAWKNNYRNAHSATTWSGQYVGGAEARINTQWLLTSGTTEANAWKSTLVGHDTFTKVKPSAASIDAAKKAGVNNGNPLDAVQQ

Consider “Fmoc-Trp-Tyr (OBu^t)-Phe-βNb-gAla-ACA-EDA-PepSyn K [peptide i]”, for which the cleavage product result in series [1] is “cleaved to a single product”.
A word on the Ki: it is a dissociation constant, usually derived from enzyme kinetics or from competition with a known ligand. For the molecule GFGSVY-OH, the Ki on anti-v-mos MAb was > 1000 µM.
On the same count and under the same terms, under GFGSVY-NH2 stands 246 to 337 µM.
For the molecule YGGLS, the values for the Ki at anti-β-endorphin MAb [2] (setting [6]) and on anti-β-endorphin MAb [2] (setting [7]) were 0.991 ± 0.052 µM and 0.726 ± 0.134 µM, respectively. Also, in the series on anti-β-endorphin MAb [3], the “identified as ligand bead in the screening” value (“identified as ligand bead” below) is given as “identified in this screening”.
At anti-v-mos MAb, GRRAYE-NH2 came in with a Ki of 24.7 ± 7 µM.
The molecule GRRAYE-OH gave a Ki on anti-v-mos MAb of 6.79 ± 2.31 µM.
On the same count and under the same terms, under “LGSGGFGSVYKA [residues 100 to 111 of the v-mos oncogene product, reference compound]” stands 3.2 ± 0.4 µM; under GRRAYE[βAla]-NH2, 9.02 to 20.4 µM.
GFGSVY[βAla]-OH: the Ki at anti-v-mos MAb fell in the range of 529 to 770 µM.
On the same count and under the same terms, the result for GRREGP[βAla]-NH2 reads 26.9 ± 6.2 µM.
On to YGALQ, for which the “identified as ligand bead” value in the series with anti-β-endorphin MAb [3] is on record as “identified in this screening”.
On to `O=C(O)CCCC[C@@H]1SC[C@@H]2NC(=O)N[C@@H]21` [Biotin, biotin], for which the “inhibition of staining of LHPQF-resin” value is on record as “no effect on the staining” on streptavidin (biotin 0.1 nM), “partially inhibited the staining” on streptavidin (biotin 1.0 nM), “partially inhibited the staining” at streptavidin (biotin 10 nM) and “completely blocked staining” on streptavidin (biotin 100 nM). At streptavidin (biotin 100, 10, 1 and 0.1 nM (figure legend)), the “effect on staining of LHPQF-resin mimotope beads” value is on record as “concentration-dependent inhibitory effect”.
One may read the Kd as a measure of binding affinity in units of concentration. “[^3 H][Leu]enkephalin [reference compound]” had a Kd at anti-β-endorphin MAb [2] (saturation analysis, n=3, 5 radioligand concentrations 1.87-30 nM) of 0.00979 ± 0.00463 µM.
For the molecule GRRGME[βAla]-NH2, the affinity on anti-v-mos MAb, expressed as Ki, was 24 ± 8.4 µM.
Take “GSVYKA [short v-mos beads, residue 106-111 of the v-mos gene product on polyacrylamide bead; negative control, reference compound]”: in series [4], the “bead colour after staining” value was “remained colorless”.
For the molecule YGGMV, the Ki at anti-β-endorphin MAb [2] (setting [6]) was determined as 14 ± 1.11 µM; at anti-β-endorphin MAb [2] (setting [7]), 8.78 ± 1.5 µM. Further, the “identified as ligand bead” value with anti-β-endorphin MAb [3] is recorded as “identified in this screening”.
As to GRRGME-OH, the Ki at anti-v-mos MAb is > 100 µM.
On to GRRPYG-OH, for which, on anti-v-mos MAb, the Ki is > 1000 µM.
For “Leu-Gly-Ser-Gly-Gly-Phe-Ser-Val-Tyr-Lys-Ala-aminocaproic acid-ethylenediamine resin [long v-mos beads]”, the “bead colour after staining” value in series [4] is “turned purple”.
At anti-v-mos MAb, GFGSVY[βAla]-NH2 came in with a Ki of 409 to 442 µM.
Still for that read-out and setting: under GRRPYG[βAla]-NH2 stands 20.5 ± 4.5 µM.
On to “Gly-Phe-Gly-Ser-Val-Tyr-aminocaproic acid-β-Ala-resin (GFGSVY-{Ahx-βAla-PAM resin}) [PAM resin/v-mos peptide beads]”, for which the “bead colour after staining” value in series [5] was “turned dark green”.
As to YGGFA, the values for the Ki on anti-β-endorphin MAb [2] (setting [6]) and on anti-β-endorphin MAb [2] (setting [7]) were 0.072 ± 0.0164 µM and 0.0329 ± 0.002 µM, respectively. The “identified as ligand bead” value in the series on anti-β-endorphin MAb [3] is recorded as “identified in this screening”.
On to YGGLQ, for which the figures for the Ki on anti-β-endorphin MAb [2] (setting [6]) and at anti-β-endorphin MAb [2] (setting [7]) were 2.91 ± 0.695 µM and 1.98 ± 0.303 µM, respectively.
For the molecule GSVYKA [short v-mos peptide], in the series on anti-v-mos, the “affinity of the antibody” value is “negligible affinity”.
Take YGGFQ: the Ki on anti-β-endorphin MAb [2] (setting [6]) came to 0.0401 ± 0.006 µM; at anti-β-endorphin MAb [2] (setting [7]), 0.015 ± 0.0017 µM. For the same molecule, the “identified as ligand bead” value in the series with anti-β-endorphin MAb [3] is “identified in this screening”.
The like results for YGGFT were, in that order, 0.0652 ± 0.0168 µM, 0.0369 ± 0.0077 µM and “identified in this screening”.
On anti-v-mos MAb, GRRAYE[βAla]-OH registered a Ki of 15.1 ± 0.5 µM.
